Test results: patent publication US20070225388A1, “Porous Bodies and Method of Production Thereof” (priority 2004, published 2007)

Assay: Dispersion of material on exposure to aqueous medium (visual)
Type: physicochemical
Settings: dye not incorporated into a porous body

## CCNc1ccc2ccccc2c1N=Nc1ccc(N=Nc2ccccc2)cc1 [Fat red 7B dye]
  dispersion or solubility of the dye alone in water: particles of dye remained at the bottom of the vessel
